From PubChem BioAssay (NCI)
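Exposure lasted 48 hours, with cells grown in 96-well plates and compounds tested at five concentrations. TGI: total growth inhibition.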 Where a SMILES comes first, the peptide text is derived from it. [ ]: non-standard residue; d: D form. The star is where a group is joined. Boc = CC(C)(C)OC(=O)*; Lac = C[CH](O)C(=O)O; OBn = c1ccc(CO*)cc1

How the values were obtained:
Test in all cases: NCI-60 cell line screen, 48 h
A549 NSCLC = system: A549 NSCLC
ACHN renal = system: ACHN renal
EKVX NSCLC = system: EKVX NSCLC
HT29 colon = system: HT29 colon
KM12 colon = system: KM12 colon
LOX IMVI melanoma = system: LOX IMVI melanoma
OVCAR-4 ovarian = system: OVCAR-4 ovarian
SF-539 CNS = system: SF-539 CNS
SW-620 colon = system: SW-620 colon
TK-10 renal = system: TK-10 renal
UACC-257 melanoma = system: UACC-257 melanoma
UACC-62 melanoma = system: UACC-62 melanoma
BT-549 breast = system: BT-549 breast
HOP-62 NSCLC = system: HOP-62 NSCLC
MALME-3M melanoma = system: MALME-3M melanoma
NCI-H226 lung = system: NCI-H226 lung

Measured: TGI

NC(CCCCCCCCCCP(=O)(O)O)C(=O)O (configuration not stated)
> 100 µM: A549 NSCLC | ACHN renal | EKVX NSCLC | HT29 colon | KM12 colon | LOX IMVI melanoma | OVCAR-4 ovarian | SF-539 CNS | SW-620 colon | TK-10 renal | UACC-257 melanoma | UACC-62 melanoma

CC(OC(=O)C(Cc1ccccc1)NC(=O)C(Cc1ccccc1)NC(=O)OC(C)(C)C)C(=O)OCc1ccccc1 (stereo not drawn) (Boc-Phe-Phe-[Lac]-OBn; configuration not given here)
> 100 µM: BT-549 breast | HOP-62 NSCLC | KM12 colon | MALME-3M melanoma | NCI-H226 lung
